Reference: US20060167229A1, “Biologically active peptide conjugates” (priority 2002, published 2006)
Marks after values point to notes of the source that are not given here.

Tests used:
NK cell = NK cell cytotoxicity activity test (spleen cells of treated mice against YAC-1 target cells, MTT); type: in vivo, BALB/c mice; conditions: for NK cell cytotoxic activity, X ± SD (%): healthy mice; for effect on the cytotoxic activity of NK cells (summary): statistically significant difference from saline in any of the dosage groups 0.5-500 μg/kg/day
Procedure: (§1) The above substances were all dissolved in 0.5 ml saline and injected intraperitoneal (i.p.) for 15 continuous days, once per day.
(§2) Ten mice per group. The day after the last test substance administration, the mice were sacrificed by cervical dislocation. The spleen was isolated aseptically and manually dispersed in cold D-Hank's solution using an injection needle. The dispersed cell suspension was further sieved through a 100 gauge 150 μm diameter stainless steel sieve. After centrifugation at 200 g for 10 minutes, the supernatant was discarded. The cell pellet was re-suspended in 10 volume of Tris-NH4Cl buffer and then kept standing still for 10 minutes at room temperature. The suspended cells were collected by centrifugation at 150 g for 10 minutes. The cells were washed 2-4 times with cold D-Hank's solution by re-suspending and collecting by centrifugation with condition as described above. The washed cells were then diluted to the desired cell densities by RPMI-1640 culture medium, containing 10% fetal bovine serum.
Mice spleen cells were prepared to 4×10^6/ml as described in section 1.1 above. Target cells YAC-1 were brought to log phase and adjusted to 1×10^5/ml. Using a 96 wells cell culture plate, […] were added to the control well containing only the spleen cells; […] and 100 μl culture medium were added to the control well containing only target cells; 100 μl mouse spleen cells and 100 μl target cells were added to the NK activity assay well. Three parallel sets of the above were prepared per mouse.
Samples were centrifuged at 150 g for 10 minutes to collect the cells. The supernatant was discarded and 50 μl/well MTT of 1 mg/ml was added. The reaction-mixture was then shaken for 2 minutes, and incubated at 37° C., 5% CO2 for 4 hours. The supernatant was discarded after centrifugation at 150 g for 10 minutes. […] 40 mM HCl-2-propanol was added and shaken for 3 minutes. An ELISA reader was used to obtain OD570 nm of each well referenced at 630 nm.

interferon (IFN) = tested on: interferon (IFN); set-up: species or system BALB/c mice; conditions: mouse, in vivo
anti-SRBC antibody = experiment: Sheep Red Blood Cell (SRBC) hemolysis test, antibody formation; type: in vivo, BALB/c mice; conditions: for anti-SRBC antibody formation, X ± SD (Unit): healthy mice, SRBC day 12 (IFN-γ, IL-2 3×10^5 IU/kg/day), saline 32 ± 7
Procedure: Sheep red blood cells (SRBC) were prepared by collecting blood from cervical vein and put into a sterile flask with glass beads. The flask was shaken for 3 minutes and the blood then mixed with Alsever solution (glucose 2.05 g, NaCl 0.4 g, […] 0.8 g, adjust to 100 ml with distilled water) and stored at 4° C. Immediately before use, samples were centrifuged at 130 g, 5 minutes to collect the SRBC. The cells were washed two times by re-suspension and centrifugation in normal saline. Then the cell pellet was collected by centrifugation at 180 g for 10 minutes and re-suspended in saline to make the final working SRBC suspension, 2% (v/v).
Complement was prepared by adding 10 volumes of fresh Cavy serum into one volume centrifuge packed SRBC, and then gently shaking for 30 minutes at 4° C. The SRBC was removed by centrifugation at 200 g for 10 minutes. 10 volumes of normal saline were added to obtain the working complement solution.
The test substances were administered as described in section 1.1, plus intraperitoneal injection 0.2 ml SRBC per mouse on day 12. On the day after the last test substance administration (day 16), blood was collected from the eye canthus and left at room temperature for one hour for serum exudation. After centrifugation at 200 g for 10 minutes, the serum was diluted by 500 times with normal saline.
To 1 ml diluted mouse serum of each mouse, 0.5 ml SRBC suspension was added. Ice cold. Then 1 ml working complement solution was added and incubated at 37° C. water bath for 10 minutes. Reactions were terminated by ice cold. Samples were then centrifuged at 200 g for 10 minutes to obtain the supernatant.
To 1 ml of this supernatant, 3 ml Drabkin solution was added and left at room temperature for 10 minutes. OD540 nm was obtained.
Reference OD540 nm was obtained by mixing 0.25 ml SRBC suspension with Drabkin solution to 4 ml and placed at room temperature for 10 minutes before OD540 nm was taken.
Sample serum index=(OD540 nm of test sample÷reference OD540 nm)×500

thymus gland = experiment: Immunity organ weight test, thymus gland index; type: in vivo, BALB/c mice; conditions: for weight of thymus gland (thymus gland index), X ± SD (%): healthy mice, saline 0.12 ± 0.02; for effect on the weight of the thymus gland (summary): statistically significant difference from saline in any of the dosage groups 0.5-500 μg/kg/day
Procedure: (§3) One day after the last test substance administration (day 16), the liver, spleen, and thymus gland were separated and blotted dry with filter paper and weighed. The phagocytosis index α was calculated as below: α=(^3√{square root over ( )}K)(W÷WLS)
Thymus gland index (%)=(thymus weight/body weight)×100%

T lymphocyte = T lymphocyte transformation test (ConA-stimulated spleen cells of treated mice, MTT); type: in vivo, BALB/c mice; conditions: for X ± SD (stimulation index): healthy mice, saline 1.3 ± 0.1; for effect on T lymphocyte transformation (summary): statistically significant difference from saline in any of the dosage groups 0.5-500 μg/kg/day
Procedure: as §1, §2
(§4) Spleen cells of density 1×10^6/ml were placed onto a 96 wells cell culture plate, 100 μL/well, three parallel wells each of the assay sample and control sample per mouse. To the assay wells, 100 μl/well ConA of 100 μg/ml in RPMI-1640 was added, and […] plain RPMI-1640 was used for the controls. The cells were incubated for 66 hrs at 37° C., 5% CO2. The cells were then pelleted by centrifugation at 150 g for 10 minutes.
50 μl/well MTT of 1 mg/ml in RPMI-1640 was added to the cell pellet and the cells re-suspended by shaking for 2 minutes. The incubation was continued for 4 hours. The supernatant was discarded after centrifugation at 150 g for 10 minutes. 120 μl 40 mM HCl-2-propanol was added to the cell pellet and shaken for 3 minutes. […]
Each mouse formed three assay wells and three control wells. The Stimulation Index (SI) of each mouse was obtained by first deriving the average OD of the three parallel wells, then dividing the value of the assay wells by the control wells.

spleen = experiment: Immunity organ weight test, spleen index; type: in vivo, BALB/c mice; conditions: for weight of spleen (spleen index), X ± SD (%): healthy mice, saline 0.53 ± 0.05; for effect on the weight of the spleen (summary): statistically significant difference from saline in any of the dosage groups 0.5-500 μg/kg/day
Procedure: as §3
Spleen index (%)=(spleen weight/body weight)×100%

IL-2 = experiment: T lymphocyte IL-2 secretion test (HT-2 cell bioassay of ConA supernatant); type: in vivo, BALB/c mice; conditions: for activity of T lymphocyte in secreting IL-2, X ± SD (IU): healthy mice
Procedure: as §4
HT-2 cells at log phase were collected by centrifugation at 150 g for 10 minutes, and washed three times with cold Hank's solution by re-suspension and centrifugation. The collected HT-2 cells were re-suspended in RPMI-1640 and incubated at 37° C., 5% CO2 for 30 minutes. The cells were further washed twice with RPMI-1640 by re-suspension and centrifugation, and re-suspended to final concentration of 2×10^5/ml with RPMI-1640.
rIL-2 was diluted to the following concentration with RPMI-1640: 500 IU/ml, 250 IU/ml, 125 IU/ml, 62.5 IU/ml, 31.25 IU/ml, and […].
The plate was incubated at 37° C., 5% CO2 for 68 hours, then centrifuged at 150 g for 15 minutes and the supernatant removed. 100 μl 0.5 mg/ml MTT in RPMI-1640 without phenolsulfonphthalein was added into each well. After shaking for 3-4 minutes to re-suspend the cells, continue to incubate for another 4 hours. Samples were then centrifuged at 150 g for 15 minutes and the supernatant was removed. To each well, 120 μl 40 mM HCl-2-propanol was added, mixed for 3-4 minutes and OD analyzed at 570 nm, referenced at 630 nm with an ELISA plate reader.
The average OD of the three parallel wells of each dilution was taken and plotted against concentration on a semi-log paper, concentration on the X-axis. The concentration at 50% OD saturation was obtained for both the testing supernatant and rIL-2.

[1] = peptide 500 μg/kg/day i.p. 15 days (IFN-γ, IL-2 3×10^5 IU/kg/day), saline 63 ± 9
[2] = peptide 0.5 μg/kg/day i.p. 15 days
[3] = peptide 5 μg/kg/day i.p. 15 days
[4] = peptide 5 μg/kg/day i.p. 15 days (IFN-γ, IL-2 3×10^5 IU/kg/day)
[5] = peptide 50 μg/kg/day i.p. 15 days (IFN-γ, IL-2 3×10^5 IU/kg/day)
[6] = peptide 500 μg/kg/day i.p. 15 days (IFN-γ, IL-2 3×10^5 IU/kg/day)
[7] = peptide 500 μg/kg/day i.p. 15 days
[8] = statistically significant difference from saline in any of the dosage groups 0.5-500 μg/kg/day

Substance: Phe Gln Pro Ser Phe (FQPSF; printed: Phe Gln Pro Ser Phe) [CMS028]
- NK cell cytotoxic activity, X ± SD (%) (NK cell; peptide 0.5 μg/kg/day i.p. 15 days (IFN-γ, IL-2 3×10^5 IU/kg/day), saline 58 ± 7): 79 ± 3 %
- NK cell cytotoxic activity, X ± SD (%) (NK cell; [1]): 90 ± 5 %
- effect on the cytotoxic activity of NK cells (summary) (NK cell): increase
- effect on the secretion of IFN by T lymphocytes (summary) (interferon (IFN)): enhance
- activity of T lymphocyte in secreting IFN, X ± SD (IU) (interferon (IFN); ip): 96 ± 13 IU
- anti-SRBC antibody formation, X ± SD (Unit) (anti-SRBC antibody; [2]): 18 ± 5 Unit
- anti-SRBC antibody formation, X ± SD (Unit) (anti-SRBC antibody; [3]): 121 ± 48*^@^ Unit
- weight of thymus gland (thymus gland index), X ± SD (%) (thymus gland; peptide 0.5 μg/kg/day i.p. 15 days (IFN-γ, IL-2 3×10^5 IU/kg/day)): 0.20 ± 0.06 %
- weight of thymus gland (thymus gland index), X ± SD (%) (thymus gland; [4]): 0.28 ± 0.06*^@^ %
- weight of thymus gland (thymus gland index), X ± SD (%) (thymus gland; [5]): 0.18 ± 0.04 %
- weight of thymus gland (thymus gland index), X ± SD (%) (thymus gland; [6]): 0.19 ± 0.02 %
- effect on the weight of the thymus gland (summary) (thymus gland): increase

Substance: Phe Asn Glu Gln (FNEQ; printed: Phe Asn Glu Gln) [CMS029]
- X ± SD (stimulation index) (T lymphocyte; [6]): 1.7 ± 0.3
- effect on T lymphocyte transformation (summary) (T lymphocyte): enhance
- NK cell cytotoxic activity, X ± SD (%) (NK cell; [1]): 87 ± 4 %
- effect on the cytotoxic activity of NK cells (summary) (NK cell): increase
- anti-SRBC antibody formation, X ± SD (Unit) (anti-SRBC antibody; [2]): 18 ± 7 Unit
- anti-SRBC antibody formation, X ± SD (Unit) (anti-SRBC antibody; [3]): 147 ± 23*^@^ Unit
- anti-SRBC antibody formation, X ± SD (Unit) (anti-SRBC antibody; peptide 50 μg/kg/day i.p. 15 days): 143 ± 13*^@^ Unit
- anti-SRBC antibody formation, X ± SD (Unit) (anti-SRBC antibody; [7]): 115 ± 22*^@^ Unit
- weight of thymus gland (thymus gland index), X ± SD (%) (thymus gland; [4]): 0.21 ± 0.03 %
- weight of thymus gland (thymus gland index), X ± SD (%) (thymus gland; [5]): 0.18 ± 0.05 %
- weight of thymus gland (thymus gland index), X ± SD (%) (thymus gland; [6]): 0.22 ± 0.04*^@^ %
- effect on the weight of the thymus gland (summary) (thymus gland): increase
- weight of spleen (spleen index), X ± SD (%) (spleen; Table 28, peptide 5 μg/kg/day (so in the source) i.p. 15 days (IFN-γ, IL-2 3×10^5 IU/kg/day)): 0.42 ± 0.04 %
- effect on the weight of the spleen (summary) (spleen): decrease

Substance: Ala Gly Asp Asp Ala Pro Arg Ala Val Phe (AGDDAPRAVF; listed as Sus scrofa) [CMS007]
- X ± SD (stimulation index) (T lymphocyte; [4]): 1.7 ± 0.1
- X ± SD (stimulation index) (T lymphocyte; [6]): 1.6 ± 0.1
- effect on T lymphocyte transformation (summary) (T lymphocyte): enhance
- activity of T lymphocyte in secreting IL-2, X ± SD (IU) (IL-2; peptide 5 μg/kg/day i.p. 15 days (IFN-γ, IL-2 3×10^5 IU/kg/day), saline 37 ± 9): 64 ± 12 IU
- activity of T lymphocyte in secreting IL-2, X ± SD (IU) (IL-2; peptide 500 μg/kg/day i.p. 15 days (IFN-γ, IL-2 3×10^5 IU/kg/day), saline 39 ± 10): 86 ± 15*^ IU
- effect on the secretion of interleukin-2 (IL-2) by T lymphocytes (summary) (IL-2; [8]): enhance
- anti-SRBC antibody formation, X ± SD (Unit) (anti-SRBC antibody; [3]): 122 ± 12*^@^ Unit
- anti-SRBC antibody formation, X ± SD (Unit) (anti-SRBC antibody; [7]): 69 ± 17*^@ Unit
- effect on the synthesis of anti-SRBC antibody upon the antigenic challenge (summary) (anti-SRBC antibody; [8]): enhance
- weight of spleen (spleen index), X ± SD (%) (spleen; [7]): 0.32 ± 0.05 %
- effect on the weight of the spleen (summary) (spleen): decrease
